Key:
[1] = Corrosion wheel test, sweet (50-50 3% NaCl brine - Mentor, saturated CO2 only), Tables III, VI, VII; details: for corrosion protection / performance (in words): CO2 only corrosive environment; for % Protection @ 2 ppm / % Protection @ 8 ppm / % Protection @ 128 ppm / % Protection @ 4 ppm / % Protection @ 32 ppm: 160° F., 24 hours, saturated CO2 only
[2] = Film persistent corrosion wheel test (50-50 3% NaCl brine - Mentor, saturated CO2 + 100 ppm H2S), Table IV; details: 160° F., film 1 hr, rinse 1 hr, run 24 hrs, single data points
Procedure: (§1) Twelve quaternary ammonium salts according to the present invention, were tested under four standard sets of corrosion wheel test conditions. These include a sweet-sour test in an all water system under a range of concentrations from 4-256 ppm (TABLE I). Tests 2 and 3 were run under sweet (TABLE III), and sour conditions (TABLE II) at low (4 ppm) and high (256 ppm) concentrations only. A film persistency test (TABLE IV) was also run for completeness of the screening sequence; however, it was not expected that these water soluble compounds would perform well under these test conditions. Due to the low solubility of some C18 derivatives, 20% activity was adopted as a standard, with the C18 compounds being submitted at 10% activity and added at double concentration to the test fluids. […] Compounds are generally water and low brine soluble, hydrocarbon dispersible with some C18 derivatives being soluble in both fresh water and hydrocarbon.
Blank weight loss: 58.3 ± 3.3 mg
Film 1 hr, Rinse 1 hr, Run 24 hrs.
(§2) Fluids: 50-50 3% NaCl brine - Mentor
(§3) Saturated CO2 + 100 ppm H2 S
Single data points with triplicate blanks

[3] = Corrosion wheel test, sweet-sour, all water system (3% NaCl brine, saturated CO2 + 100 ppm H2S), Table I; details: 160° F., 24 hours, 3% NaCl brine only
Procedure: as §1
Blank weight loss: 40 ± 0.9 mg
(§4) Fluids: 3% NaCl brine only
as §3
(§5) Duplicates w/ triplicate blanks

[4] = Corrosion wheel test, sour (3% NaCl brine, saturated N2 + 500 ppm H2S), Table II; details: 160° F., 24 hours, 3% NaCl brine only
Procedure: as §1
Blank weight loss: 55.8 ± 1.0 mg
as §4
Saturated N2 + 500 ppm H2 S
Duplicates and triplicate blanks

[5] = Corrosion wheel test, sweet (50-50 3% NaCl brine - Mentor, saturated CO2 only), Tables III, VI, VII; details: Table III, 160° F., 24 hours
Procedure: Twelve quaternary ammonium salts according to the present invention, were tested under four standard sets of corrosion wheel test conditions. These include a sweet-sour test in an all water system under a range of concentrations from 4-256 ppm (TABLE I). Tests 2 and 3 were run under sweet (TABLE III), and sour conditions (TABLE II) at low (4 ppm) and high (256 ppm) concentrations only.
as §2, §5
Fluids: 50-50 - 3% NaCl brine - Mentor

[6] = Inhibitor solubility test, Table V; assay type: physicochemical; details: 20% active inhibitor added at 0.5% by volume; observed initially and after 24 hours
[7] = Table VII, thiol addition comparison

SMILES | Solubility in 5% NaCl brine [6] | Solubility in aromatic naphtha [6] | Solubility in distilled water [6] | Solubility in kerosene [6] | % Protection @ 2 ppm [1, 7] [%] | % Protection @ 8 ppm [1, 7] [%] | % Protection @ 10,000 ppm [2] [%] | % Protection @ 4 ppm [3] [%] | % Protection @ 8 ppm [3] [%] | % Protection @ 16 ppm [3] [%] | % Protection @ 256 ppm [3] [%] | % Protection @ 4 ppm [4] [%] | % Protection @ 256 ppm [4] [%] | % Protection @ 4 ppm [5] [%] | % Protection @ 256 ppm [5] [%] | % Protection @ 2 ppm ([1]; Table VI confirmatory test) [%] | % Protection @ 4 ppm ([1]; Table VI confirmatory test) [%] | % Protection @ 8 ppm ([1]; Table VI confirmatory test) [%] | % Protection @ 32 ppm ([1]; Table VI confirmatory test) [%] | % Protection @ 128 ppm ([1]; Table VI confirmatory test) [%] | other results
CCCCCCCCCC[N+](C)(C)C [C10 H21 NMe3 I, reference compound] |  |  |  |  | 0 | 4 |  |  |  |  |  |  |  |  |  |  |  |  |  |  | corrosion protection / performance (in words) ([1]; Table VII): too short an alkyl chain length to function effectively as a corrosion inhibitor; % Protection @ 128 ppm [1, 7]: 3%
CCCCCCCCCCCCS [C12 H25 SH, dodecane thiol, reference compound] |  |  |  |  | 4 | 7 |  |  |  |  |  |  |  |  |  |  |  |  |  |  | corrosion protection / performance (in words) ([1]; Table VII): neither did dodecene thiol alone give any corrosion protection; % Protection @ 128 ppm [1, 7]: 0%
CCCCCCCCCCCC[N+](C)(C)CCS [Compound 2] | disp | disp | sol | disp | 23 | 72 | 64 | 35 | 44 | 67 | 77 | 23 | 79 | 56 | 81 | 13 | 42 | 69 | 82 | 80 | % Protection @ 128 ppm [1, 7]: 84%
CCCCCCCCCCCCCCCCCC[N+](C)(C)CCS [Compound 3] | disp | sol | sol | sol |  |  | 53 | 31 | 41 | 58 | 60 | 11 | 83 | 62 | 92 | 18 | 18 | 76 | 79 | 81 | 
CCCCCCCCCCCC[N+](C)(C)CCCS [Compound 5] | sol | disp | sol | disp |  |  | 25 | 30 | 59 | 67 | 76 | 17 | 77 | 82 | 85 | 45 | 63 | 79 | 80 | 78 | 
CCCCCCCCCCCCSCC[N+](C)(C)C [Compound 8] | sol | disp | sol | disp |  |  | 19 | 7 | 13 | 23 | 81 | 3 | 78 | 14 | 76 | 9 | 19 | 18 | 62 | 82 | 
CCCCCCCCCCCCSCCC[N+](C)(C)C [Compound 11] | sol | disp | sol | disp |  |  | 20 | 21 | 27 | 35 | 79 | 15 | 80 | 60 | 84 |  |  |  |  |  | 

The next lines start with results.

Solubility in 5% NaCl brine [6] | Solubility in aromatic naphtha [6] | Solubility in distilled water [6] | Solubility in kerosene [6] | SMILES | % Protection @ 2 ppm [1, 7] [%] | % Protection @ 8 ppm [1, 7] [%] | % Protection @ 10,000 ppm [2] [%] | % Protection @ 4 ppm [3] [%] | % Protection @ 8 ppm [3] [%] | % Protection @ 16 ppm [3] [%] | % Protection @ 256 ppm [3] [%] | % Protection @ 4 ppm [4] [%] | % Protection @ 256 ppm [4] [%] | % Protection @ 4 ppm [5] [%] | % Protection @ 256 ppm [5] [%] | % Protection @ 2 ppm ([1]; Table VI confirmatory test) [%] | % Protection @ 4 ppm ([1]; Table VI confirmatory test) [%] | % Protection @ 8 ppm ([1]; Table VI confirmatory test) [%] | % Protection @ 32 ppm ([1]; Table VI confirmatory test) [%] | % Protection @ 128 ppm ([1]; Table VI confirmatory test) [%] | other results
disp | disp | sol | disp | CCCCCCCC[N+](C)(C)CCCS [Compound 4] | 62 | 86 | 14 | 32 | 55 | 66 | 76 | 3 | 81 | 83 | 86 | 41 | 63 | 82 | 80 | 78 | % Protection @ 128 ppm [1, 7]: 85%
insol | disp | sol | disp | CCCCCCCCCCCCCCCCCC[N+](C)(C)CCCS [Compound 6] |  |  | 71 | 11 | 26 | 59 | 75 | 14 | 71 | 83 |  | 30 | 74 | 75 | 80 | 85 | 
sol | disp | sol | disp | CCCCCCCCSCC[N+](C)(C)C [Compound 7] |  |  | 11 | 15 | 17 | 11 | 31 | 7 | 72 | 29 | 65 |  |  |  |  |  | 
insol | disp | disp | disp | CCCCCCCCCCCCCCCCCCSCC[N+](C)(C)C [Compound 9] |  |  | 17 | 26 | 33 | 52 | 66 | 6 | 75 | 38 | 84 |  |  |  |  |  | 
sol | disp | sol | disp | CCCCCCCCSCCC[N+](C)(C)C [Compound 10] |  |  | 8 | 18 | 23 | 24 | 50 | 12 | 75 | 81 |  | 10 | 12 | 20 | 25 | 51 | 
insol | sol | sol | disp | CCCCCCCCCCCCCCCCCCSCCC[N+](C)(C)C [Compound 12] |  |  | 14 | 49 | 56 | 57 | 69 | 14 | 81 | 50 | 83 |  |  |  |  |  | 

Source: patent US4673436A, “N, S containing corrosion inhibitors” (Exxon Chemical Patents Inc., priority 1986, dated 1987)
